Laboratory results: patent US6875569B2, “Modified lepidopteran receptors and hybrid multifunctional proteins for use in transcription and regulation of transgene expression” (The Salk Institute for Biological Studies, priority 1997, dated 2005)
Entries after “also recorded” stand apart in the source; their conditions may differ. Where two headings read alike, the source gives them in different places.

How the values were obtained:
[1] = test system: modified drosophila ecdysone receptor (VdEcR); format: cell-based
Description: (§1) Transient transfection experiments in CV-1 cells or 293 cells using modified drosophila ecdysone receptor (VdEcR) or modified bombyx hormone receptor (VbR) with or without dimer partners as described. Luc activity is examined 40 hours after transfection and stimulation with ligand (FIG. 2A). Both receptors are assayed in CV-1 cells with 1 μM MurA and no exogenous dimer partner. […] Both receptors are also assayed in the presence of 5 μg/ml tebufenozide (FIG. 2B). […] Both receptors are also assayed with and without dimer partners. VbR was stimulated with 5 μg/ml tebufenozide and VdEcR was stimulated with 1 μM MurA. […] VbR, with no exogenous dimer partner, has an extremely low base-line which is stimulated 200-300 fold by ligand. Note also from this experiment that VdEcR tends to have a much higher baseline than VbR without dimer partner.
(§2) Transient transfections are performed by calcium-phosphate coprecipitation employing standard methods (see Sambrook et al., in Molecular Cloning: A Laboratory Manual. Cold Spring Harbor Press, New York, N.Y. (1989)). All tissue culture experiments are performed using DMEM 10% FBS in a 10% CO2 incubator unless otherwise specified. […] After 40 additional hours of incubation, cells are harvested and luciferase activity measured in an analytical bioluminescence photometer. […]

[2] = test system: modified bombyx hormone receptor (VbR); format: cell-based, bombyx mori
Description: as §1
(§3) Tebufenozide is administered to cells co-transfected with nucleic acids encoding receptors: LINX (which encodes the tet-transactivator (TTA)), VbR, TTMT (which encodes the TTA-VbR fusion protein, and TTMT-2V which is like TTMT, but with two VP16 t-domains), to assay for EcRELuc activity (FIG. 2C). Note that teb stimulates VbR, and the TTMT fusions, but has no action on TTA (LINX). The same experiment as that described for 2C, only with a TetO-Luc reporter which responds only to TTA or fusion proteins is summarized in FIG. 2D. […] Note that in this experiment, TTMT and TTMT-2V work better than TTA only (LINX) to stimulate the TetO-luc promoter/reporter. […] An experiment on CV-1 cells transfected with TTMT and two reporters: 6TetO-luc and 4-EcRE-bgalactosidase show both promoters could be simultaneously influenced by the presence or absence of both ligands (FIG. 2E).
Transient transfections are performed by calcium-phosphate coprecipitation employing standard methods (see Sambrook et al., in Molecular Cloning: A Laboratory Manual. Cold Spring Harbor Press, New York, N.Y. (1989)). All tissue culture experiments are performed using DMEM 10% FBS in a 10% CO2 incubator unless otherwise specified. All transfections are performed in triplicate in 24-well Costar plates using CV-1 cells at an approximately 5×10^4 plating density. Immediately following transfection, 1 μm ligand in 20% EtOH/PBS is added to wells. After 40 additional hours of incubation, cells are harvested and luciferase activity measured in an analytical bioluminescence photometer. Cell extracts are simultaneously examined for LacZ activity of the internal control by standard methods. Bar graph levels represent relative luciferase activity after correction using internal control values.

[3] = biological target: T1, tet-transactivator (TTA) (Escherichia coli, UniProt P04483); test: EcRE-Luc reporter co-transfected with LINX; format: cell-based; details: FIG. 2C
T1 construct: expressed in transfected cells; host or cells: CV-1 cells
Description: as §3, §2

[4] = test system: VbR; test: Transgene regulation in stably infected rat fibroblasts (MARSHA reporter, VbR retroviral vector); format: cell-based, bombyx mori; details: 0.25 μg/ml teb vs higher levels; VbR-luc clonal fibroblast line and VbR-GH clonal line, FIG. 3; listed as teb
[5] = test system: mammals and other non-insect species; details: extensive testing in animal hosts; previously reported; cited from earlier work
[6] = test system: TTMT-2V (TTMT with two VP16 t-domains); test: EcRE-Luc reporter co-transfected with TTMT-2V; format: cell-based; details: FIG. 2C
Description: as §3, §2

[7] = test system: TTMT (TTA-VbR fusion protein); test: EcRE-Luc reporter co-transfected with TTMT; format: cell-based; details: FIG. 2C
Description: as §3, §2

T1 sequence (P04483 whole entry, added parts left off): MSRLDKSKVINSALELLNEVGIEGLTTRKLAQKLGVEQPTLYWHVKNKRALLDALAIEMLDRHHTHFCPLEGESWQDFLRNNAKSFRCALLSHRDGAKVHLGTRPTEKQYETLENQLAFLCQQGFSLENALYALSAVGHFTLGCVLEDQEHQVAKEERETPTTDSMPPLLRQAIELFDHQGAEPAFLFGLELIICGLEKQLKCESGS

Row | Structure (SMILES) | dimer partner requirement for VdEcR stimulation ([1]; 1 μM MurA, with and without dimer partners) | stimulation of VbR, side-by side comparison ([2]; 1 μM MurA) | response of bR (Luc activity) ([2]; CV-1 cells, 1 μM MurA, no exogenous dimer partner) | response of drosophila EcR (Luc activity) ([1]; 5 μg/ml tebufenozide) | EcRE-Luc activity with TTA (LINX) [3] | stimulation of full transgene activity, dose comparison [4] | toxicity to mammals [5] | EcRE-Luc activity with TTMT-2V [6] | stimulation of VbR, side-by side comparison ([2]; 2.5 μg/ml teb) | stimulation of VbR over base-line by ligand ([2]; 5 μg/ml tebufenozide, VbR with no exogenous dimer partner, experiment with and without dimer partners) | effect of ligand on VbR in the presence of exogenous dimer partner ([2]; 5 μg/ml tebufenozide, exogenous dimer partner (RXR, Usp) present, VbR constitutively activated) | induction of Luc activity by VbR ([2]; 5 μg/ml tebufenozide, no exogenous dimer partner, 40 hours after transfection) | EcRE-Luc activity with VbR ([2]; EcRE-Luc reporter, FIG. 2C) | EcRE-Luc activity with TTMT [7]
1 | CC(C)CC[C@@H](O)[C@](C)(O)[C@H]1CC[C@@]2(O)C3=CC(=O)[C@]4(O)C[C@@H](O)[C@@H](O)C[C@]4(C)[C@H]3[C@H](O)C[C@]12C [MurA, muristerone A] | RXR and Usp are necessary for VdEcR | effective at stimulating VbR | responds |  |  |  |  |  |  |  |  |  |  | 
2 | CCc1ccc(C(=O)NN(C(=O)c2cc(C)cc(C)c2)C(C)(C)C)cc1 [tebufenozide] |  |  |  | does not respond at all, and in fact, decreases slightly; also recorded: responds weakly, if at all | no action | as effective at stimulating full activity as higher levels; also recorded: as effective as higher levels for stimulating full activity | very low toxicity | stimulates | effective at stimulating VbR | 200-300 fold | inhibited by ligand addition | greater than 200 fold | stimulates | stimulates
